Assay results: patent US20100120788A1, “IDENTIFICATION OF POLYNUCLEOTIDES FOR […] OF COMPOUNDS THAT […] WITH AND/OR MODULATE PROTEIN TYROSINE KINASES AND/OR PROTEIN TYROSINE KINASE […] IN PROSTATE CELLS” (Bristol-Myers Squibb Company, priority 2007, published 2010)

Legend:
Assay type in all cases: cell-based, human
[1] = tested on: 22Rvl; assay: In vitro cell proliferation assay (MTS); conditions: 22Rvl cells
Procedure: (§1) The IC50 for each cell line was assessed in by MTS assays as described in Example 1 (Methods). […] The IC50 unit is μM.
(§2) All cell lines were obtained from the American Type Culture Collection (Manassas, Va.), except DUCaP, which was obtained from Dr. Kenneth Pienta at University of Michigan. PWR1E and MDAPCa2b cells were grown in BRFF-HPC1 serum-free medium (AthenaES, Baltimore, Md.), and all other cells were cultured in RPMI 1640 supplemented with 10% fetal bovine serum, 100 IU/ml penicillin, and […] (Invitrogen, Carlsbad, Calif.). DUCaP cells were maintained in the presence of an immortalized mouse fibroblast cell line, which formed a layer beneath DUCaP cells that easily dislodged. Cells were incubated at 37° C. with circulation of 5% CO2.
(§3) The optimum number of cells to seed in 96-well plates to achieve linearity were determined in pilot experiments. Cells were plated at density of 2000-5000 cells/well into 96-well plates and cultured overnight. Cells were then treated with dasatinib at serially diluted concentrations. Three days later, MTS was added to the medium and quantified on a SPECTRAMAX® photometric plate reader (Molecular Devices, Sunnyvale, Calif.) at 490 nm. The results were plotted against drug concentrations and IC50s were calculated using Prism4 software (GraphPad, San Diego, Calif.). The IC50 was the concentration of dasatinib that would reduce cell proliferation by 50% compared to control. Minimum three independent assays were performed for each cell line. […] In the latter case, the concentration of dasatinib that was able to consistently reduce cell proliferation was used as IC50. […] Dasatinib stock, dissolved in DMSO, was 10 mg/ml.

[2] = tested on: DU145; assay: In vitro cell proliferation assay (MTS); conditions: DU145 cells
Procedure: as §1, §2, §3

[3] = tested on: HPV10; assay: In vitro cell proliferation assay (MTS); conditions: HPV10 cells
Procedure: as §1, §2, §3

[4] = tested on: HPV7; assay: In vitro cell proliferation assay (MTS); conditions: HPV7 cells
Procedure: as §1, §2, §3

[5] = tested on: MDAPCa2b; assay: In vitro cell proliferation assay (MTS); conditions: MDAPCa2b cells
Procedure: as §1, §2, §3

[6] = tested on: NB11; assay: In vitro cell proliferation assay (MTS); conditions: NB11 cells
Procedure: as §1, §2, §3

[7] = tested on: NB26; assay: In vitro cell proliferation assay (MTS); conditions: NB26 cells
Procedure: as §1, §2, §3

[8] = tested on: RWPE1; assay: In vitro cell proliferation assay (MTS); conditions: RWPE1 cells
Procedure: as §1, §2, §3

[9] = tested on: W99; assay: In vitro cell proliferation assay (MTS); conditions: W99 cells
Procedure: as §1, §2, §3

[10] = tested on: WPMY1; assay: In vitro cell proliferation assay (MTS); conditions: WPMY1 cells
Procedure: as §1, §2, §3

[11] = tested on: secreted uPA protein in PC3 cells; assay: uPA protein ELISA assay of culture medium; conditions: different doses, 24 h, per 50,000 viable cells
Excerpt: FIG. 3. PLAU gene expression and regulation by dasatinib analyzed at mRNA and protein levels. (A) Differential baseline expression of PLAU gene between resistant (R, in black) and sensitive (S, in red) cell lines. The X-values are the expression level in log2-scale. The resistant cell line expressing high level of PLAU was WPMY1 and the sensitive cell line expressing low level of PLAU was LNCaP. (B) Down-regulation of PLAU mRNA level by dasatinib-treatment in 5 sensitive cell lines. The cells were treated with 100 nM dasatinib (+D) or DMSO (Ctrl) for 48 hours. The p value was 0.048 in paired t-test, indicating a significant reduction of PLAU mRNA following dasatinib treatment. (C) Correlation between dasatinib-induced PLAU mRNA down-regulation with the sensitivity of cell lines to dasatinib. […] The amount of uPA protein secreted into the culture medium by 50,000 viable cells was assessed by ELISA assay. […]
Cell were seeded in 24-well plates at density of 25,000 cells/well. […] Total number of cells were also quantitated using a cell counter, and the number of viable cells were assessed with Trypan Blue. The amount of uPA protein in the supernatant was determined using the uPA ELISA kit (America Diagnostica, Stamford, Conn.), and the concentrations of uPA secreted by 50,000 viable cells into the medium were calculated.

[12] = Homo sapiens, 72 h, MTS, three days, read-out: mean IC50 (μM) to BMS-A

**Q.** How did the Classification ([1]; based on IC50) turn out when Cc1nc(Nc2ncc(C(=O)Nc3c(C)cccc3Cl)s2)cc(N2CCN(CCO)CC2)n1 [BMS-A, N-(2-chloro-6-methylphenyl)-2-[[6-[4-(2-hydroxyethyl)-1-piperazinyl]-2-methyl-4-pyrimidinyl]amino]-5-thiazolecarboxamide] was run?
**A.** Resistant (those having an IC50 above 0.2 μm were considered to be resistant)

**Q.** What about the IC50 ([1]; Homo sapiens, 72 h, MTS, three days, highly resistant: concentration that consistently reduced proliferation used as IC50, read-out: mean IC50 (μM) to BMS-A) of the same compound?
**A.** 2 µM

**Q.** And the Classification ([2]; based on IC50)?
**A.** Sensitive (The cell lines with an IC50 lower than 0.2 μm were defined as sensitive to the compound)

**Q.** What about the IC50 ([2]; Homo sapiens, DU-145, 72 h, MTS, three days, read-out: mean IC50 (μM) to BMS-A) of the same compound?
**A.** 0.057 µM

**Q.** And the Classification ([3]; based on IC50)?
**A.** Sensitive (The cell lines with an IC50 lower than 0.2 μm were defined as sensitive to the compound)

**Q.** And the IC50 [3, 12]?
**A.** 0.058 µM

**Q.** And the Classification ([4]; based on IC50)?
**A.** Sensitive (The cell lines with an IC50 lower than 0.2 μm were defined as sensitive to the compound)

**Q.** And the IC50 [4, 12]?
**A.** 0.127 µM

**Q.** And the IC50 ([5]; Homo sapiens, MDA-PCa-2b, 72 h, MTS, three days, highly resistant: concentration that consistently reduced proliferation used as IC50, read-out: mean IC50 (μM) to BMS-A)?
**A.** 2.5 µM

**Q.** And the Classification ([5]; based on IC50)?
**A.** Resistant (those having an IC50 above 0.2 μm were considered to be resistant)

**Q.** What about the IC50 [6, 12] of the same compound?
**A.** 0.163 µM

**Q.** And the Classification ([6]; based on IC50)?
**A.** Sensitive (The cell lines with an IC50 lower than 0.2 μm were defined as sensitive to the compound)

**Q.** And the IC50 [7, 12]?
**A.** 0.139 µM

**Q.** What about the Classification ([7]; based on IC50) of the same compound?
**A.** Sensitive (The cell lines with an IC50 lower than 0.2 μm were defined as sensitive to the compound)

**Q.** And the IC50 ([8]; Homo sapiens, RWPE-1, 72 h, MTS, three days, read-out: mean IC50 (μM) to BMS-A)?
**A.** 0.12 µM

**Q.** What about the Classification ([8]; based on IC50) of the same compound?
**A.** Sensitive (The cell lines with an IC50 lower than 0.2 μm were defined as sensitive to the compound)

**Q.** What about the IC50 [9, 12] of the same compound?
**A.** 0.199 µM

**Q.** And the Classification ([9]; based on IC50)?
**A.** Sensitive (The cell lines with an IC50 lower than 0.2 μm were defined as sensitive to the compound)

**Q.** And the IC50 ([10]; Homo sapiens, WPMY-1, 72 h, MTS, three days, highly resistant: concentration that consistently reduced proliferation used as IC50, read-out: mean IC50 (μM) to BMS-A)?
**A.** 2.5 µM

**Q.** What about the Classification ([10]; based on IC50) of the same compound?
**A.** Resistant (those having an IC50 above 0.2 μm were considered to be resistant)

**Q.** And the “amount of uPA protein secreted into the growth medium” value [11]?
**A.** reduced
